# Where “and” joins values, the source holds several entries; their conditions need not be identical. Equal entries are not always repeated. Entries after “also recorded” stand apart in the source; their conditions may differ.
# What was measured:
# HCV (−) RNA synthesis = experiment: HCV (−) strand RNA synthesis in binary HCV expression system (RNase protection assay, strand-specific RT-PCR); format: cell-based, hepatitis C virus (genotype 1a, strain H77); details: for HCV (−) strand results with other timing of the drug: drug given 0 and 12 hours before vTF7-3 infection instead of 20 hours; for HCV replicative strand synthesis: the two RBV doses (50 and 400)
# HSV-1 = HSV-1 plaque formation in CV-1 cells; format: cell-based; details: the two RBV doses (50 and 400); listed as RBV
# HCV RNA = HCV RNA quasispecies analysis (mutation rate) in transfected/infected CV-1 cells; format: cell-based, hepatitis C virus (genotype 1a, strain H77); set-up: nucleotide substitutions / substitutions / error generation / dN/dS (nonsynonymous/synonymous mutation): unit of the concentration uncertain
# Experimental: Twenty-four hours post-vvT7, cells were lysed and RNA was extracted by TRIzol (GIBCO/BRL), DNase I-treated (Roche Molecular Biochemicals), and phenol-chloroform extracted.
# RT-PCR was performed for the 5′UTR, core, E2-HVR1, NS5A and NS5B regions using region-specific primers: […]
# RT was carried out on extracted RNA using AMV reverse transcriptase (Perkin-Elmer) using standard conditions. 25 cycles of PCR were carried out using 25 pmol each of the relevant sense and antisense primers, 0.5 mM of each dNTP, 1.5 mM MgCl2, and 0.5 units of Taq polymerase (Perkin-Elmer).
# Amplicons were cloned using the TOPO-PCR system (Invitrogen). Between 11 and 20 individual transformants corresponding to each region were sequenced bidirectionally by the ABI Prism automated sequencer, using primers flanking the insert. Synonymous and non-synonymous substitutions at variance from the parent pT7flHCV-Rz and pT7HCVDBglII-Rz sequences were determined and error generation rates calculated as nucleotide substitutions/total nucleotides sequenced. Sequences were aligned, and quasispecies diversity rates were compared between groups by using the statistical package SPSS 9.0.
# [1] = RBV 50, E2 (HVR-1), listed as REV
compound,measurement,setting,value
NC12CC3CC(CC(C3)C1)C2 [amantadine],HCV (−) strand synthesis,HCV (−) RNA synthesis; doses 1-100 mg/well,no activity; also recorded: Neither ribavirin nor amantadine demonstrated direct activity
same,HCV (−) strand results with other timing of the drug,HCV (−) RNA synthesis,unchanged
NC(=O)c1ncn([C@@H]2O[C@H](CO)[C@@H](O)[C@H]2O)n1 [ribavirin],HSV-1 plaque formation in CV-1 cells,HSV-1,activity against HSV-1
same,error generation throughout the viral genome compared with the lower dose,"HCV RNA; 400 mM vs 50 mM, differences not statistically significant",to a lesser degree than that observed at the lower dose
same,nucleotide substitutions,"HCV RNA; 50 (unit uncertain), HVR-1 region",15
same,substitutions,"HCV RNA; 50 (unit uncertain), core region",12
same,error generation,"HCV RNA; 400 (unit uncertain), across all regions",0.6-1.2 ×10^−3
same,Total Mutations (all regions),HCV RNA; RBV 50,54
same,ERROR GEN RATE,"HCV RNA; RBV 50, 5′UTR",0.7 X 10^−3
same,MUTANT CLONES (%),"HCV RNA; RBV 50, 5′UTR",3(20%)
same,NONSYN/SYN SUBS,"HCV RNA; RBV 50, 5′UTR",0/3
same,Transition Mutations T to C,"HCV RNA; RBV 50, 5′UTR",2
same,NONSYN/SYN SUBS,"HCV RNA; RBV 50, CORE",8/4
same,Transition Mutations C to T,"HCV RNA; RBV 50, CORE",2
same,Transition Mutations T to C,"HCV RNA; RBV 50, CORE",2
same,insertions (resulting in stop codons),"HCV RNA; RBV 50, CORE",2 insertions
same,ERROR GEN RATE,"HCV RNA; RBV 50, CORE, listed as RBV",1.9^1 X 10^−3
same,ERROR GEN RATE,"HCV RNA; RBV 50, CORE, listed as REV",1.9^2 X 10^−3
same,MUTANT CLONES (%),"HCV RNA; RBV 50, CORE, listed as REV",7(50%)
same,nt-insertions,"HCV RNA; RBV 50, CORE, listed as REV",4 nt-insertions
same,NONSYN/SYN SUBS,"HCV RNA; RBV 50, E2",11/4
same,Transition Mutations A to G,"HCV RNA; RBV 50, E2",4
same,Transition Mutations C to T,"HCV RNA; RBV 50, E2",1
same,Transition Mutations G to A,"HCV RNA; RBV 50, E2",1
same,Transition Mutations T to C,"HCV RNA; RBV 50, E2",6
same,insertions (resulting in stop codons),"HCV RNA; RBV 50, E2",2 insertions
same,ERROR GEN RATE,"HCV RNA; RBV 50, E2 (HVR-1), listed as RBV",1.7 X 10^−3 and 1.5^2 X 10^−3
same,ERROR GEN RATE,HCV RNA; [1],1.5 X 10^−3
same,MUTANT CLONES (%),HCV RNA; [1],12(60%)
same,nt-deletion,HCV RNA; [1],1 nt-deletion
same,nt-insertion,HCV RNA; [1],1 nt-insertion
same,ERROR GEN RATE,"HCV RNA; RBV 50, NS5A",2.5^3 X 10^−3
same,MUTANT CLONES (%),"HCV RNA; RBV 50, NS5A",5(20%)
same,NONSYN/SYN SUBS,"HCV RNA; RBV 50, NS5A",12/0
same,Transition Mutations A to G,"HCV RNA; RBV 50, NS5A",1
same,Transition Mutations C to T,"HCV RNA; RBV 50, NS5A",1
same,ERROR GEN RATE,"HCV RNA; RBV 50, NS5B",1.7 X 10^−3
same,Transition Mutations A to G,"HCV RNA; RBV 50, NS5B",2
same,Transition Mutations C to T,"HCV RNA; RBV 50, NS5B",1
same,Transition Mutations G to A,"HCV RNA; RBV 50, NS5B",4
same,MUTANT CLONES (%),"HCV RNA; RBV 50, NS5B, listed as RBV",7(39%)
same,NONSYN/SYN SUBS,"HCV RNA; RBV 50, NS5B, listed as RBV",9/3
same,NONSYN/SYN SUBS,"HCV RNA; RBV 50, NS5B, listed as REV",9/4
same,MUTANT CLONES (%),"HCV RNA; RBV 50, all regions",29(33%)
same,Non-Syn/Syn Substitutions,"HCV RNA; RBV 50, all regions",40/14
same,dose-responsiveness of mutations,HCV RNA; RBV 50 vs 400,not a demonstrable dose-responsiveness
same,Total Mutations (all regions),HCV RNA; RBV 400,31
same,ERROR GEN RATE,"HCV RNA; RBV 400, 5′UTR",0.7 X 10^−3
same,MUTANT CLONES (%),"HCV RNA; RBV 400, 5′UTR",3(21%)
same,NONSYN/SYN SUBS,"HCV RNA; RBV 400, 5′UTR",0/3
same,Transition Mutations A to G,"HCV RNA; RBV 400, 5′UTR",1
same,Transition Mutations G to A,"HCV RNA; RBV 400, 5′UTR",1
same,MUTANT CLONES (%),"HCV RNA; RBV 400, CORE",4(20%)
same,NONSYN/SYN SUBS,"HCV RNA; RBV 400, CORE",5/1
same,Transition Mutations A to G,"HCV RNA; RBV 400, CORE",1
same,Transition Mutations C to T,"HCV RNA; RBV 400, CORE",2
same,Transition Mutations G to A,"HCV RNA; RBV 400, CORE",1
same,Transition Mutations T to C,"HCV RNA; RBV 400, CORE",1
same,ERROR GEN RATE,"HCV RNA; RBV 400, CORE, listed as RBV",0.6^4 X 10^−3 and 0.6 X 10^−3
same,MUTANT CLONES (%),"HCV RNA; RBV 400, E2",7(35%)
same,Transition Mutations A to G,"HCV RNA; RBV 400, E2",3
same,Transition Mutations C to T,"HCV RNA; RBV 400, E2",2
same,Transition Mutations G to A,"HCV RNA; RBV 400, E2",1
same,Transition Mutations T to C,"HCV RNA; RBV 400, E2",1
same,insertions,"HCV RNA; RBV 400, E2",2 insertions
same,ERROR GEN RATE,"HCV RNA; RBV 400, E2, listed as RBV",1.2 X 10^−3 and 1.2^4 X 10^−3
same,NONSYN/SYN SUBS,"HCV RNA; RBV 400, E2, listed as RBV",9/4 and 7/5
same,ERROR GEN RATE,"HCV RNA; RBV 400, NS5A",0.9 X 10^−3
same,MUTANT CLONES (%),"HCV RNA; RBV 400, NS5A",2(14%)
same,NONSYN/SYN SUBS,"HCV RNA; RBV 400, NS5A",3/0
same,ERROR GEN RATE,"HCV RNA; RBV 400, NS5B",1 X 10^−3
same,MUTANT CLONES (%),"HCV RNA; RBV 400, NS5B",6(35%)
same,NONSYN/SYN SUBS,"HCV RNA; RBV 400, NS5B",5/2
same,Transition Mutations A to G,"HCV RNA; RBV 400, NS5B",2
same,Transition Mutations G to A,"HCV RNA; RBV 400, NS5B",1
same,Transition Mutations T to C,"HCV RNA; RBV 400, NS5B",2
same,MUTANT CLONES (%),"HCV RNA; RBV 400, all regions",25(30%)
same,Non-Syn/Syn Substitutions,"HCV RNA; RBV 400, all regions",20/11
same,induction of mutations / error generation in the HCV genome,"HCV RNA; RBV, all regions tested, listed as RBV",induces mutations across all regions; also recorded: increases error generation
same,dN/dS (nonsynonymous/synonymous mutation),"HCV RNA; ribavirin at 50 (unit uncertain), all regions tested",2.85
same,additional RNA inhibitory effects,HCV (−) RNA synthesis; RBV added to IFN,not seen
same,HCV (−) RNA synthesis,HCV (−) RNA synthesis; doses of 10-200 mg/well,No inhibitory effect; also recorded: Neither ribavirin nor amantadine demonstrated direct activity
same,HCV (−) strand results with other timing of the drug,HCV (−) RNA synthesis,unchanged
same,HCV replicative strand synthesis,HCV (−) RNA synthesis,no effect
same,HCV replicative strand synthesis,HCV (−) RNA synthesis; listed as RBV,no direct decrease
interferon-α-2b,Total Mutations (all regions),"HCV RNA; IFN 100,000",30
same,MUTANT CLONES (%),"HCV RNA; IFN 100,000, all regions",19(30%)
same,Non-Syn/Syn Substitutions,"HCV RNA; IFN 100,000, all regions",20/10
same,5′ UTR sequences,"HCV RNA; IFN 100,000 U",remained invariant
same,ERROR GEN RATE,"HCV RNA; IFN 100,000U, 5′UTR",0 X 10^−3
same,MUTANT CLONES (%),"HCV RNA; IFN 100,000U, 5′UTR",0
same,NONSYN/SYN SUBS,"HCV RNA; IFN 100,000U, 5′UTR",0
same,MUTANT CLONES (%),"HCV RNA; IFN 100,000U, CORE",4(36%)
same,NONSYN/SYN SUBS,"HCV RNA; IFN 100,000U, CORE",2/2
same,Transition Mutations T to C,"HCV RNA; IFN 100,000U, CORE",2
same,ERROR GEN RATE,"HCV RNA; IFN 100,000U, CORE, listed as IFN",0.8^5 X 10^−3 and 0.8 X 10^−3
same,ERROR GEN RATE,"HCV RNA; IFN 100,000U, E2",2.8^6 X 10^−3
same,MUTANT CLONES (%),"HCV RNA; IFN 100,000U, E2",10(83%)
same,NONSYN/SYN SUBS,"HCV RNA; IFN 100,000U, E2",10/6
same,Transition Mutations A to G,"HCV RNA; IFN 100,000U, E2",4
same,Transition Mutations C to T,"HCV RNA; IFN 100,000U, E2",2
same,Transition Mutations T to C,"HCV RNA; IFN 100,000U, E2",9
same,stop codon,"HCV RNA; IFN 100,000U, E2",1
same,ERROR GEN RATE,"HCV RNA; IFN 100,000U, NS5A",1.4 X 10^−3
same,MUTANT CLONES (%),"HCV RNA; IFN 100,000U, NS5A",3(16%)
same,NONSYN/SYN SUBS,"HCV RNA; IFN 100,000U, NS5A",5/1
same,Transition Mutations A to G,"HCV RNA; IFN 100,000U, NS5A",1
same,Transition Mutations C to A,"HCV RNA; IFN 100,000U, NS5A",2
same,Transition Mutations T to C,"HCV RNA; IFN 100,000U, NS5A",1
same,ERROR GEN RATE,"HCV RNA; IFN 100,000U, NS5B",0.9 X 10^−3
same,MUTANT CLONES (%),"HCV RNA; IFN 100,000U, NS5B",2(18%)
same,NONSYN/SYN SUBS,"HCV RNA; IFN 100,000U, NS5B",3/1
same,dN/dS (nonsynonymous/synonymous mutation),"HCV RNA; IFN-α, all regions tested",2.0
same,HCV (−) RNA synthesis,"HCV (−) RNA synthesis; doses from 2000 to 15,000 units/well, CV-1 cells",dose-dependent inhibition
same,HCV core protein synthesis,HCV core protein,dose-responsive inhibition

# — US20030148267A1, “Screening assay for hepatitis C virus antiviral agents” (priority 2001, published 2003)
